In patent publication US8420673B2, “Fungicidal amides” (E I du Pont de Nemours and Company, priority 2007, dated 2013):
Read-outs that look alike come from different tables or passages of the source.

Tests used:
Assay type in all cases: in vivo
Phytophthora infestans [1] = conditions: tomato seedlings, sprayed to run-off the day before inoculation
Plasmopara viticola = assay: Test A: grape downy mildew, test suspension sprayed after inoculation, visual disease rating; conditions: grape seedlings, sprayed to run-off 24 h after inoculation
Phytophthora infestans [2] = conditions: tomato seedlings, sprayed to run-off 17 h after inoculation
[3] = no asterisk, test concentration not given

SMILES | Test B rating (disease control) (Phytophthora infestans [1]; compound tested at 40 ppm) [%] | Test A rating (disease control) (Plasmopara viticola; compound tested at 40 ppm) [%] | Test C rating (disease control) (Phytophthora infestans [2]; compound tested at 40 ppm) [%] | Test B rating (disease control) (Phytophthora infestans [1]; [3]) [%] | Test A rating (disease control) (Plasmopara viticola; [3]) [%] | Test C rating (disease control) (Phytophthora infestans [2]; [3]) [%]
CCOC(=O)C(C(=O)N1CCC(c2nc(C(=O)N(C)C3CCCc4ccccc43)cs2)CC1)n1nc(C(F)(F)F)cc1C (stereo not drawn) [Compound 6, ethyl 4-[4-[[methyl(1,2,3,4-tetrahydro-1-naphthalenyl)amino]carbonyl]-2-thiazolyl]-α-[5-methyl-3-(trifluoromethyl)-1H-pyrazol-1-yl]-β-oxo-1-piperidinepropanoate] | 17 | 72 | 0 | – | – | –
Cc1cc(C(F)(F)F)nn1CCC(=O)N1CCC(c2nc(C(=O)N(C)[C@@H]3CCCc4ccccc43)cs2)CC1 [Compound 5, N-methyl-2-[1-[3-[5-methyl-3-(trifluoromethyl)-1H-pyrazol-1-yl]-1-oxopropyl]-4-piperidinyl]-N-[(1R)-1,2,3,4-tetrahydro-1-naphthalenyl]-4-thiazolecarboxamide] | 57 | 17 | 0 | – | – | –
CC(=O)N(Cc1csc(C2CCN(C(=O)Cn3nc(C(F)(F)F)cc3C)CC2)n1)[C@@H]1CCCc2ccccc21 [Compound 3, N-[[2-[1-[2-[5-methyl-3-(trifluoromethyl)-1H-pyrazol-1-yl]acetyl]-4-piperidinyl]-4-thiazolyl]methyl]-N-[(1R)-1,2,3,4-tetrahydro-1-naphthalenyl]acetamide] | – | – | – | 85 | 55 | 53
Cc1cc(C(F)(F)F)nn1CC(=O)N1CCC(c2nc(CN[C@@H]3CCCc4ccccc43)cs2)CC1 [Compound 2, 2-[5-methyl-3-(trifluoromethyl)-1H-pyrazol-1-yl]-1-[4-[4-[[[(1R)-1,2,3,4-tetrahydro-1-naphthalenyl]amino]methyl]-2-thiazolyl]-1-piperidinyl]ethanone] | – | – | – | 100 | 28 | 93
Cc1cc(C(F)(F)F)nn1CC(=O)N1CCC(c2nc(CN(C)[C@@H]3CCCc4ccccc43)cs2)CC1 [Compound 1, 1-[4-[4-[[methyl[(1R)-1,2,3,4-tetrahydro-1-naphthalenyl]amino]methyl]-2-thiazolyl]-1-piperidinyl]-2-[5-methyl-3-(trifluoromethyl)-1H-pyrazol-1-yl]ethanone] | – | – | – | 100 | 72 | 99
Cc1cc(C(F)(F)F)nn1CC(=O)N1CCC(c2nc(CN(C=O)[C@@H]3CCCc4ccccc43)cs2)CC1 [Compound 4, N-[[2-[1-[2-[5-methyl-3-(trifluoromethyl)-1H-pyrazol-1-yl]acetyl]-4-piperidinyl]-4-thiazolyl]methyl]-N-[(1R)-1,2,3,4-tatrahydro-1-naphthalenyl]formamide] | – | – | – | 87 | 0 | 26
